We go through five substances from publication PMC5593926, “Induction of high titred, non-neutralising antibodies by self-adjuvanting peptide epitopes derived from the respiratory syncytial virus fusion protein” (Scientific Reports, 2017).

Entries after “also recorded” stand apart in the source; their conditions may differ. Bridge positions count the residues as written; N and C are the ends. Square brackets hold non-standard residues; d marks the D form. I, II: the chains in the order shown. ξ: configuration not given here. ξGly(tetradecyl) = CCCCCCCCCCCCCCC(N)C(=O)O

Series [1] concerns D25 antibody (site Ø specific). As to the kind of experiment: ELISA binding of D25 antibody to plate-coated vaccine constructs, one-site model. Further details: species or system human. The conditions noted are these: construct coated on plate. How it is done:
(§1) We further tested the ability of site II and site Ø specific antibodies (Motavizumab and D25, respectively) to recognise the peptides and LCP constructs. Dissociation constant (kD) values were derived from a saturation one-site model. D25 clearly recognised the ØLCP2 (66 ± 14 nM) but not ØLCP1 (Fig. 3A). In comparison, in our analysis D25 bound to the native pre-fusion RSV F (FDs-Cav1) with approximately […] stronger avidity (0.92 ± 0.08 nM). Motavizumab bound IILCP4 with the highest avidity (3.8 ± 0.9 nM), while in our analysis Motavizumab bound FDs-Cav1 with approximately 25 fold stronger avidity (0.15 ± 0.01 nM). Motavizumab also recognised IILCP3, 5, 6 and 7 and IIP5 (Fig. 3B). In general binding avidity was stronger for LCP constructs compared to original peptides.
Figure 3 Binding avidity of monoclonal antibodies against vaccine candidates. Antibody binding assessed by serial dilution of antibody on ELISA plates were coated with vaccine constructs and curve fitting by non-linear regression with a one site specific binding model using Graphpad Prism 7 software. […]
An indirect enzyme-linked immunosorbent assay (ELISA) was used to determine the IgG antibody titre. […] Plates were washed as above and secondary antibody binding was detected with the addition of 3,3′,5,5′-Tetramethylbenzidine (TMB) reagent (Thermo Fisher Scientific) at 50 µl/well. […]

In series [2] the target is Motavizumab (site II specific). The series can be described thus: ELISA binding of Motavizumab to plate-coated vaccine constructs, one-site model. Particulars: serial dilution of antibody on ELISA plates coated with construct; saturation one-site specific binding model; read-out: Mota kD. The arrangement: species or system human. How it is done: as §1
Figure 3 Binding avidity of monoclonal antibodies against vaccine candidates. Antibody binding assessed by serial dilution of antibody on ELISA plates were coated with vaccine constructs and curve fitting by non-linear regression with a one site specific binding model using Graphpad Prism 7 software. (A) D25 antibody recognised ØLCP2 (kD: 66 ± 014 nM) and to a lesser extent ØP2 (kD: 720 ± 036nM). Binding to FDs Cav1 used as positive control (kD: 0.92 ± 00.08 nM). Motavizumab recognised IILCP4 (kD: 3.8 ± 00.9nM), IILCP5 (kD: 16 ± 03nM), IILCP7 (kD: 17 ± 011nM), IIP5 (kD: 23 ± 05nM) and to a lesser extent IILCP6 (kD: 40 ± 04nM). Binding FDs Cav1 was used as a positive control (kD: 0.15 ± 00.01nM).
An indirect enzyme-linked immunosorbent assay (ELISA) was used to determine the IgG antibody titre. Peptide antigens were used to coat 96-well plates (TITERTEK®) at a concentration of 5 μg/ml in 20 mM sodium carbonate buffer (pH 9.6), overnight at 4 °C. […] Plates were washed as above and secondary antibody binding was detected with the addition of 3,3′,5,5′-Tetramethylbenzidine (TMB) reagent (Thermo Fisher Scientific) at 50 µl/well. Reactions were stopped with 2M H2SO4 (25 µl/well) and absorbance was read at 450 nm on a SpectraMax® 190 (Molecular Devices) microplate reader.

A short description of series [3]: Particle size analysis by dynamic light scattering. The conditions noted are these: 1% DMSO in PBS, 600 µg/ml, 25 °C, 173° backscattering, five replicates. The class given is physicochemical. How it is done:
Peptides were dissolved in 1% DMSO in phosphate buffered saline (PBS) to a concentration of 600 µg/ml. Particle size was measured using a Zetasizer Nano ZP instrument (Malvern Instrument, UK) via M3-PALS technique with a 173° backscattering angle, at 25 °C. Measurement was performed in five replicates.

The test system of series [4] is relevant antigen (peptide and LCP constructs). The series can be described thus: IgG antibody titres in sera of immunised mice against the relevant antigen (ELISA). The class given is in vivo, C57BL/6 mice. The conditions noted are these: 30 µg s.c. on day 0, 21, 28, 35, LCP in PBS with 1% DMSO, peptides mixed with PADRE and CFA, ELISA against matched antigen. On the procedure: A total of 70 female C57BL/6 mice (6–8 weeks old) were purchased from the University of Queensland Biological Resources (UQBR), and housed in the AIBN animal house facility. All experimental procedures performed in this study were carried out in accordance with National Health & Medical Research Council guidelines and approved by The University of Queensland Animal Ethics Committee. Mice (n=5 per group) were injected subcutaneously at the tail base on day 0, 21, 28, 35 (Supplementary, Fig S15) with 30 µg of each construct in phosphate-buffered saline (PBS). 1% DMSO was included for LCP constructs to aid solubility. The negative control group were administered with 50 μl of PBS. Control groups included peptides (ØP1,2 and IIP3–5) physically mixed with PADRE (1:1) and emulsified in a total volume of 50 μl of complete Freund’s adjuvant (CFA)-PBS (1:1) for the first immunisation and PADRE-peptide mixture in PBS for subsequent immunisations. […]
An indirect enzyme-linked immunosorbent assay (ELISA) was used to determine the IgG antibody titre. […] Plates were washed as above and secondary antibody binding was detected with the addition of 3,3′,5,5′-Tetramethylbenzidine (TMB) reagent (Thermo Fisher Scientific) at 50 µl/well. Reactions were stopped with 2M H2SO4 (25 µl/well) and absorbance was read at 450 nm on a SpectraMax® 190 (Molecular Devices) microplate reader.

Another series concerns RSV. The series can be described thus: RSV plaque reduction neutralisation test (PRNT). In kind it is cell-based, RSV (A2). Particulars: purified chimeric recombinant anti-F antibody, Vero cells. How it is done: Vero cells were seeded in 96-well tissue culture plates (Nunc®) at 4 × 10^4 cells/well in Opti-MEM supplemented with 3% FBS and 100 U penicillin with 100 μg/ml streptomycin. After overnight growth to allow a confluent monolayer, serial dilutions of virus stock were prepared in Opti-MEM (2% FBS and 100 U penicillin with 100 μg/ml streptomycin) and incubated at 37 °C, 5% CO2 for 1 h. Cell monolayers were inoculated with 50 μL of virus and incubated. After 1 h, the inoculum was replaced with overlay medium (Medium 199 with 3% methylcellulose, 2% FBS, 100 U penicillin with 100 μg/ml streptomycin) and incubated at 37 °C for 72 h. Overlay medium was aspirated and cells were fixed (80% acetone) and immunostained with a recombinant anti-RSV monoclonal antibody followed by IRDye® 800CW goat anti-mouse IgG, LI-COR Biosciences (1:2500). Plaques were read using Odyssey® Imager (LI-COR Biosciences) and titre was recorded as PFU/ml.
PRNT assays were performed as previously described. Briefly, pooled Sera was heat inactivated at 56 °C for 30 min. Dilutions of serum were combined with 50 PFU of RSV in serum free Opti-MEM and incubated at 37 °C for 1 h before applying to confluent monolayers of Vero cells in TC96-well plates. Cells were incubated with the serum-virus mixture at 37 °C for 1 h. Inoculum was aspirated and overlay medium was added and cells were incubated at 37 °C for 72 h. […]
(In a plaque reduction assay, fewer plaques than in the control indicate reduced infectivity or spread.)

Series [5] is described as follows: Secondary structure analysis by circular dichroism. The class given is physicochemical. Particulars: 600 µg/ml; spectra not detected. How it is done:
Conformational studies of constructs were performed using a J-710 spectropolarimeter (Jasco Corporation, Japan). Samples with 600 µg/ml concentration were transferred into a low volume quartz cuvette with 0.1 cm path length. CD spectra were analysed between 250 nm and 190 nm wavelengths. Measurements were performed in triplicate (reported as an average of readings). Spectral results are reported as mean residual ellipticity (θ) versus wavelength (nm).
(In general: Circular dichroism is the unequal absorption of left and right circularly polarised light.)

For KNYIDKQLLPIVNKQS [ØP1], in series [1], the “recognition by D25 (in words)” value is reported as “Neither ØP1 nor ØLCP1 bound to D25”.

What is called Kd is the free concentration of one partner at which half of the binding sites on the other are occupied at equilibrium, for simple one-to-one binding. “I: Ac-LTNSELLSLINDMPITNDQKKLMSNNVQIVRQQS / II: Ac-AKFVAAWTLKAAAKSS[ξGly(tetradecyl)][ξGly(tetradecyl)]-NH2 (amide I:C-II:14) [IILCP5]”: the Kd in series [2] amounted to 16 ± 3 nM. Besides, in series [3], the “Diameter DLS” value came out at 181±25 nm. Besides, the “antigen specific IgG response in sera (in words)” value in series [4] was “higher specific IgG titres; also recorded: robust antibody response”.

As to “Ac-LTNSELLSLINDMPITNDQKKLMSNNVQIVRQQS-NH2 [IIP5]”, the Kd in series [2] was found to be 23 ± 5 nM. Besides, the “antigen specific IgG response in sera (in words)” value in series [4] was “higher specific IgG titres; also recorded: strong response”.

With Motavizumab, the “neutralisation of RSV by purified antibody (in words)” value with RSV was “potent neutralisation”.

For the substance “I: Ac-[ξGly(tetradecyl)][ξGly(tetradecyl)]LTNSELLSLINDMPITNDQKKLMSNNVQIVRQQS / II: Ac-AKFVAAWTLKAAAKSS[ξGly(tetradecyl)][ξGly(tetradecyl)]-NH2 (amide I:C-II:14) [IILCP7]”, in series [5], the “aggregation under CD measurement condition” value is recorded as “aggregation”. In series [2], the Kd amounted to 17 ± 11 nM. Besides, the “Diameter DLS” value in series [3] is reported as 261±20 nm.
